# Measurements taken from patent publication US8562953B2, “Dendritic polymers and magnetic resonance imaging contrast agent employing the same” (Industrial Technology Research Institute, priority 2007, dated 2013).
# Test: T1 relaxation measurements (water proton relaxivity, 20 MHz NMR spectrometer, inversion-recovery)
# Assay type: physicochemical
# Details: Bo = 0.47 T, per Gd^3+ ion
# Procedure: T1 Relaxation Measurements […] […] All of the three generations of cyclosiloxane-core dendrimers (polymer (A)˜(C)) were analyzed and compared with a commercial contrast agent, namely, Magnevist. […] 1, polymers (A)˜(D) for Magnetic resonance imaging (MRI) were developed. It consists of paramagnetic gadolinium ions chelated to DTPA/benzyl-DTPA molecules which in turn were attached to the peripheral of the cyclic dendritic structure.
smiles,measurement,value
CNC[C@H](O)[C@@H](O)[C@H](O)[C@H](O)CO.CNC[C@H](O)[C@@H](O)[C@H](O)[C@H](O)CO.O=C([O-])CN(CCN(CC(=O)[O-])CC(=O)O)CCN(CC(=O)[O-])CC(=O)O.[Gd+3] [Magnevist ™],Relaxivity/Gd^3+ ion (ionic) r1,4.2 (mM · s) − 1
